The experiment deals with Fmr1^−/y mice. The experiment in a line: Dendritic spine density and morphology analysis in Fmr1−/y mice treated with rimonabant. Format: in vivo. To be noted: 1 mg/kg, i.p., 7 d. Here is the method:
Fmr1 knockout (KO) mice in FVB background (Fmr1 KO, FVB.129P2-Pde6b^+ Tyr^c-ch Fmr1^tm1Cgr/J) and wild-type mice (WT, FVB.129P2-Pde6b^+ Tyr^c-ch/AntJ) were purchased from The Jackson Laboratory and crossed to obtain Fmr1^−/y and WT littermates. All experimental animals were bred in-house at the Barcelona Biomedical Research Park (PRBB) Animal Facility. Fmr1^−/y and WT mice were used at 12 to 16 weeks of age. Mice were housed four per cage in a temperature (21±1° C.) and humidity (55±10%) controlled environment. Food and water were available ad libitum. All the experiments were performed during the light phase of a 12 h light/dark cycle (lights on at 8 am and off at 8 pm). Animals were handled for one week before starting the experiments. All animal procedures followed the standard ethical guidelines (European Communities Directive […]) and were approved by the local ethical committee (Comitè Èlic d'Experimentació Animal-Parc de Recerca Biomèdica de Barcelona, CEEA-PRBB). The PRBB has also the Animal Welfare Assurance (#A5388-01, IACUC Approval Date Jun. 8, 2009) granted by the Office of Laboratory Animal Welfare (OLAW) of the National Institutes of Health (USA). All behavioral tests were performed by researchers blind to the different experimental groups.
Rimonabant was obtained from Sanofi-Aventis (Sanofi-Aventis Recherche). Rimonabant was injected intraperitoneally (i.p.) in a volume of 10 ml per kg.
Dendritic spine analysis was performed as previously described (Lee K W. et al., Proc Natl Acad Sci USA. 2006; 103(9): 3399-404) in mice that received a chronic administration of rimonabant (1 mg kg^−1, 7 d) or its vehicle. Brains were extracted after perfusion (4% PFA in PB) 3 h after the last administration of rimonabant or vehicle solution on the seventh day of treatment. […]
Results are reported as mean±s.e.m. The experiments were evaluated by one-way analysis of variance (ANOVA) followed by the Dunnett's post-hoc test when required. […]

Setting [1] is: compared to vehicle-treated Fmr1^−/y mice.

From US9662320B2, “Antagonists of the cannabinoid receptor CB1 for use in the treatment of diseases associated with neuronal dendritic abnormalities” (Universitat Pompeu Fabra, priority 2013, dated 2017) come the findings set out here.

As to `Cc1c(C(=O)NN2CCCCC2)nn(-c2ccc(Cl)cc2Cl)c1-c1ccc(Cl)cc1` [rimonabant, 5-(4-Chlorophenyl)-1-(2,4-dichloro-phenyl)-4-methyl-N-(piperidin-1-yl)-1H-pyrazole-3-carboxamide], the “dendritic spine density of CA1 pyramidal neurons” value (CA1 field of the hippocampus) is reported as “normalized”. In addition, under setting [1], the “mushroom/wide (mature) spines” value is “increase” and the “thin/stubby (immature) spines” value is reported as “decrease”.
